Measurements from the supplement of paper PMC8671470.

Legend:
Settings in all cases: 72 h
[1] = tested on: NOMO-1
Procedure, shortened: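 Each of fifteen myeloid leukaemia cell lines was seeded in RPMI 1640 at a density titrated to its linear growth range. The cells were incubated for 72 h at 37 °C and 5% CO2 with compounds at five tenfold doses from 1 to 10,000 nM, in duplicate. After ATP luminescence was normalised to vehicle and to a positive control at 10 µM, four-parameter log-logistic curves were fitted. These curves gave the IC50.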

[2] = tested on: HL-60; test: cell viability (% survival relative to DMSO control); higher = less cytotoxic
Procedure, shortened: (§1)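 Four-parameter log-logistic fits in drc and PharmacoGx supplied area under the curve where it is given. Underlying viability came from CellTiter-Glo, normalised to DMSO and proteasome-inhibitor wells, with the proteasome inhibitor at 10 μM. HL-60 cells in RPMI 1640 plus 10% FBS had been rescreened against the full library at five tenfold concentrations of 1–10,000 nM, in duplicate on 384-well plates, with DMSO or 100 nM of one of three metabolic inhibitors, for 72 h at 37 °C, 5% CO2.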

[3] = tested on: BV-173; test: cell viability (% survival relative to DMSO control, bortezomib = 0%); higher = less cytotoxic
Procedure, shortened: (§2)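 Seeding density for each of the 10 AML and 5 CML cell lines was titrated to the linear growth range. Cells went into 384-well plates pre-printed in duplicate with compounds at 1, 10, 100, 1000 or 10000 nM and were held for 72 h at 37 °C with 5% CO2. CellTiter-Glo luminescence then provided the readout. Percent survival is expressed relative to vehicle at 100% and a 10 µM positive control at 0%, averaged over duplicates.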

[4] = tested on: HEL; test: as above
Procedure, shortened: as §2

[5] = tested on: HL-60; test: as above
Procedure, shortened: as §2

[6] = tested on: K-562; test: as above
Procedure, shortened: as §2

[7] = tested on: KCL-22; test: as above
Procedure, shortened: as §2

[8] = tested on: KG-1; test: as above
Procedure, shortened: as §2

[9] = tested on: KU-812; test: as above
Procedure, shortened: as §2

[10] = tested on: LAMA-84; test: as above
Procedure, shortened: as §2

[11] = tested on: ML-2; test: as above
Procedure, shortened: as §2

[12] = tested on: MOLM-13; test: as above
Procedure, shortened: as §2

[13] = tested on: MV4-11; test: as above
Procedure, shortened: as §2

[14] = tested on: Mono-Mac-6; test: as above
Procedure, shortened: as §2

[15] = tested on: NOMO-1; test: as above
Procedure, shortened: as §2

[16] = tested on: SHI-1; test: as above
Procedure, shortened: as §2

[17] = tested on: THP-1; test: as above
Procedure, shortened: as §2

[18] = tested on: HL-60; test: area under dose-response curve (viability, 1 nM-10 uM) (fraction (0-1)); higher = more sensitive
Procedure, shortened: as §1

NC(CCC(=O)NC(CSCc1ccc(Br)cc1)C(=O)NCC(=O)OC1CCCC1)C(=O)OC1CCCC1 (centres undefined) [S-para-Bromobenzylglutathione cyclopentyl diester]
Settings | IC50 (cell viability) [µM]
[1] | > 10

cell viability [%], [2]
Settings | 0.001 µM | 0.01 µM | 0.1 µM | 1 µM | 10 µM
co-treatment: AZD3965 100 nM | 101 | 98.9 | 102 | 91.1 | 77.1
co-treatment: DMSO vehicle | 102 | 91.6 | 106 | 97.4 | 94.4
co-treatment: GSK2194069 100 nM | 104.2 | 85.8 | 110 | 95 | 87.2
co-treatment: pictilisib 100 nM | 97.1 | 87.5 | 113 | 76.7 | 55.5

Settings | area under dose-response curve, co-treatment: DMSO vehicle | area under dose-response curve, co-treatment: GSK2194069 100 nM | area under dose-response curve, co-treatment: pictilisib 100 nM | cell viability, 1 nM [%] | cell viability, 10 nM [%] | cell viability, 100 nM [%] | cell viability, 1000 nM [%] | cell viability, 10000 nM [%]
[3] | – | – | – | 96.5 | 88.3 | 97 | 77.1 | 28
[4] | – | – | – | 114 | 88.2 | 113 | 102 | 77
[5] | – | – | – | 97.3 | 92.7 | 105 | 90 | 100
[6] | – | – | – | 105 | 106 | 104 | 112 | 93.2
[7] | – | – | – | 103 | 97.9 | 104 | 111 | 98.3
[8] | – | – | – | 145 | 102 | 49.9 | 43.4 | 105
[9] | – | – | – | 90.1 | 97.2 | 95.9 | 101 | 93.9
[10] | – | – | – | 101 | 110 | 93.3 | 98.2 | 98.9
[11] | – | – | – | 102 | 87.1 | 105 | 105 | 8.21
[12] | – | – | – | 113 | 111 | 92.6 | 90 | 89.2
[13] | – | – | – | 109 | 89.3 | 106 | 98.7 | 93.4
[14] | – | – | – | 108 | 96.5 | 88.8 | 90.6 | 63.3
[15] | – | – | – | 98 | 98.1 | 97.4 | 97.8 | 95.8
[16] | – | – | – | 98.2 | 109 | 98.5 | 91.3 | 99.9
[17] | – | – | – | 103 | 97.5 | 96.8 | 101 | 92
[18] | < 0.0301 | < 0.0301 | 0.0772 | – | – | – | – | –

NCc1ccc(-c2cccnc2)s1 [(5-Pyrid-3-YLTHIEN-2-YL)METHYLAMINE]
Settings | IC50 (cell viability) [µM]
[1] | > 10

cell viability [%], [2]
Settings | 0.001 µM | 0.01 µM | 0.1 µM | 1 µM | 10 µM
co-treatment: AZD3965 100 nM | 103 | 78 | 114 | 97 | 101
co-treatment: DMSO vehicle | 103 | 101 | 109 | 92.7 | 98.43
co-treatment: GSK2194069 100 nM | 105 | 94.3 | 107.2 | 95.1 | 96.7
co-treatment: pictilisib 100 nM | 104 | 91.2 | 113 | 92.2 | 96.9

Settings | area under dose-response curve, co-treatment: AZD3965 100 nM | area under dose-response curve, co-treatment: DMSO vehicle | area under dose-response curve, co-treatment: GSK2194069 100 nM | area under dose-response curve, co-treatment: pictilisib 100 nM | cell viability, 1 nM [%] | cell viability, 10 nM [%] | cell viability, 100 nM [%] | cell viability, 1000 nM [%] | cell viability, 10000 nM [%]
[3] | – | – | – | – | 113 | 102 | 98.7 | 104 | 87.2
[4] | – | – | – | – | 105 | 103 | 104 | 109 | 104
[5] | – | – | – | – | 99.3 | 107 | 103 | 115 | 121
[6] | – | – | – | – | 92.7 | 122 | 96.1 | 90.4 | 94
[7] | – | – | – | – | 122 | 114 | 91.6 | 84.7 | 88.8
[8] | – | – | – | – | 109 | 108 | 99.8 | 108 | 87.6
[9] | – | – | – | – | 104 | 107 | 97.7 | 104 | 85.1
[10] | – | – | – | – | 108 | 106 | 102 | 93 | 91.2
[11] | – | – | – | – | 104 | 108 | 97.6 | 113 | 96.5
[12] | – | – | – | – | 100 | 102 | 93.7 | 97.8 | 91.8
[13] | – | – | – | – | 91.6 | 123 | 104 | 110 | 89.6
[14] | – | – | – | – | 108 | 103 | 95.7 | 104 | 89
[15] | – | – | – | – | 109 | 105 | 97.5 | 109 | 87.9
[16] | – | – | – | – | 107 | 115 | 105 | 97 | 100
[17] | – | – | – | – | 109 | 111 | 99.6 | 104 | 93
[18] | < 0.0301 | < 0.0301 | < 0.0301 | < 0.0301 | – | – | – | – | –
